Test results reported in US11723886B2, “Targeting ocular diseases with novel APE1/Ref-1 inhibitors” (Indiana University Research and Technology Corporation, priority 2018, dated 2023).

Key:
HRECs [1] = test: TUNEL apoptosis assay in HRECs; format: cell-based, human; conditions: anti-proliferative doses
Description: EdU incorporation, Ki-67 Staining and TUNEL. These assays were carried out as described previously (Basavarajappa et al., PLoS One 9:e95694 (2014); Basavarajappa et al., EMBO Mol Med 9:786-801 (2017)) with the exception of using chamber slides, not coverslips. Briefly, cells (30,000 per well) were seeded on 8-well chamber slides coated with attachment factors and allowed to attach overnight. Cells were treated with the indicated compound concentrations for 17 hours (overnight). To assay proliferation, cells were incubated with EdU in complete media for 8 hours at 37° C. Cells were then fixed in 4% paraformaldehyde for 20 minutes and permeabilized using 0.25% Triton X-100 prepared in PBS. Cells were incubated with a rabbit-specific monoclonal antibody against Ki-67 (D3B5) (#9129; Cell Signaling, Danvers, Mass.) (1:400) overnight at 4° C. Secondary antibody was Alexa Fluor goat anti-rabbit 488 (A11034; Invitrogen, Carlsbad, Calif.) with DAPI counter-stain for nuclear staining. Proliferating cells that incorporated EdU were detected using the Click-iT EdU Imaging kit (Invitrogen, Carlsbad, Calif.). […] The cells were imaged using a Zeiss AxioImager D2 microscope or an LSM 700 confocal microscope and the percentage of positive cells was counted on three low-power (for TUNEL) or high-power (for Ki-67 and EdU) fields per well using ImageJ software.

HRECs [2] = test: Propidium iodide cell cycle analysis in HRECs; format: cell-based, human; conditions: high doses, 24 hours
Description: Cell cycle analysis. HRECs (2×10^6) were grown in EGM-2 medium. Cells were serum starved in EBM-2 medium overnight, then treated with the indicated concentrations of APX2009 or APX2014 along with DMSO control for 24 hours in complete medium. Cells were washed twice in ice-cold PBS followed by fixation in 66% ethanol solution overnight at 4° C. Fixed cells were again washed twice in ice-cold PBS and the pellets were resuspended in propidium iodide staining solution for 30 minutes at 37° C. (20 μg/mL propidium iodide prepared in 1×PBS containing 0.1% Triton X-100 and 100 μg/mL RNase A). After incubation cells were analyzed using flow cytometry (FACSCalibur, BD Biosciences, San Jose, Calif.). Pulse shape analysis was used to exclude doublets and debris. The single cell population was then assessed by the FL2 area histogram plot using ModFit software (v. 5.0) and cell cycle profiles were generated.

HIF-regulated genes = test: RNA-Seq of HIF-regulated genes in HRECs; format: cell-based, human; conditions: 0.1 and 1 μM, 6 and 24 hours
Description: Human retinal endothelial cells (HRECs) (Cell Systems, Inc. Kirkland, Wash.) were plated in 6-well plates and treated with 0.1 μM APX2009, 1 μM APX2009 or DMSO for 6 hours and 24 hours. Cells were washed once after treatment with PBS, collected and frozen. This process was repeated to collect treated cells in 4 different passages. RNA was extracted in 300 μL Trizol (Life Technologies, Carlsbad, Calif.) and flash frozen at −80° C. The SMARTer system (Clontech, Mountain View, Calif.) was used to generate cDNA from cells. The dscDNA quantity and quality was assessed using an Agilent Bioanalyzer (Agilent Technologies, Santa Clara, Calif., USA) with the High Sensitivity DNA Chip. […] The IUSM Genomics Facility prepared libraries using a Nextera kit (Illumina, San Diego, Calif.). DNAs were sequenced using the Illumina HiSeq 4000.

[3] = test system: APE1 repair activity in neurons; conditions: cited from earlier work

Compound | apoptosis by TUNEL (HRECs [1]) | cell cycle phase distribution (HRECs [2]) | expression of HIF regulated genes (RNA-Seq) (HIF-regulated genes) | APE1 repair activity in neurons [3]
CCC/C(=C\C1=C(OC)C(=O)c2ccccc2C1=O)C(=O)NOC [APX2014, (2E)-2-[(3-methoxy-1,4-dioxo-1,4-dihydronapthalen-2-yl)methylidene]-N-methoxypentanamide] | neither compound induced apoptosis | modest increase in cells in G0/G1 phase |  | 
CCC/C(=C\C1=C(OC)C(=O)c2ccccc2C1=O)C(=O)N(CC)CC [APX2009, (2E)-2-[(3-methoxy-1,4-dioxo-1,4-dihydronaphthalen-2-yl)methylidene]-N,N-diethylpentanamide] | neither compound induced apoptosis | modest increase in cells in G0/G1 phase | blocked HIF regulated genes in a concentration dependent manner | can enhance APE1 repair activity
